ChEMBL document CHEMBL1201862, “PubChem BioAssay data set” (2004)
The source made the active and inactive calls.

What was measured:
[1] = target: Glucose-6-phosphate 1-dehydrogenase (Homo sapiens, UniProt P11413); test: human G6PD enzyme inhibitors, dose response, selectivity assay for P. falciparum G6PD inhibitor project, biochemical, fluorescence (AID 504792); format: functional
[2] = system: Streptococcus sp. 'group A'; test: growth inhibition of control SK(-) GAS strain, dose response, counter-screen for streptokinase expression inhibitor project, luminescence, kanamycin, BacTiterGlo, confirmation (AID 1900); format: functional, organism-based
[3] = target: T1, Sentrin-specific protease 6 (Homo sapiens, UniProt Q9GZR1); format: functional;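 further: Luminescence-based dose-response confirmatory assay of SENP6 inhibition, following up an ultra-high-throughput screen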
T1 sequence (Q9GZR1 whole entry): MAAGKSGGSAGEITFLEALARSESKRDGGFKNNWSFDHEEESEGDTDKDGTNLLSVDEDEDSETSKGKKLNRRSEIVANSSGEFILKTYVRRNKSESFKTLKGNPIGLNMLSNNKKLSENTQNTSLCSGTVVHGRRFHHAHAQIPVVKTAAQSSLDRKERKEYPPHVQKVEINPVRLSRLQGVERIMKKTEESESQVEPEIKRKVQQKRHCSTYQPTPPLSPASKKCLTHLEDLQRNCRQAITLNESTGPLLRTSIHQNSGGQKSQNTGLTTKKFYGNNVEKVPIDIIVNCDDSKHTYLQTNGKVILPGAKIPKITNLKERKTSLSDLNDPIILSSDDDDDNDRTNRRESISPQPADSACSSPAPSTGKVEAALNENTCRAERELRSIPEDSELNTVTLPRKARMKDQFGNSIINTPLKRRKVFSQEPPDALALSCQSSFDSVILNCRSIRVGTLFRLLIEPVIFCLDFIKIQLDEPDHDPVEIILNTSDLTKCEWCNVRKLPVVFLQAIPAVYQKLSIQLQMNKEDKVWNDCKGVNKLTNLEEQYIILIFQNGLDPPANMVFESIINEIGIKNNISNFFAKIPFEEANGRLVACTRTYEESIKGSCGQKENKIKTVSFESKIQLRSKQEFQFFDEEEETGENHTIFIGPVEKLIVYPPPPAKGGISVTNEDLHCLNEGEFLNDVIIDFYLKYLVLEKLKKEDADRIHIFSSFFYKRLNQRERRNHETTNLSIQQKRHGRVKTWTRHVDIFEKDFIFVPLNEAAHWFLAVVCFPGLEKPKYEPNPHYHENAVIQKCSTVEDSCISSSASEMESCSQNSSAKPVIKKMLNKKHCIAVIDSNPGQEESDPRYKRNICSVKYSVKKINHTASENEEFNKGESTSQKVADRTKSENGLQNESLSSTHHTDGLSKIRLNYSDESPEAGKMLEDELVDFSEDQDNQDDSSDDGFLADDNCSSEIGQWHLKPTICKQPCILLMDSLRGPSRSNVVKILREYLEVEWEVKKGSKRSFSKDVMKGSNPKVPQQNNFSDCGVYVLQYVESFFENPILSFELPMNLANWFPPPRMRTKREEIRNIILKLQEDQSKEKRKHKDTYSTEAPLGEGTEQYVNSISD

[4] = target: T2, Protein RecA (Mycobacterium tuberculosis, UniProt P9WHJ3); test: Fluorescence Cell-Free Homogeneous Dose Retest to Identify Inhibitors of RecA-Intein Splicing Activity. [Related pubchem assays (depositor defined):AID2097, AID2223, AID489010, AID492950]; format: functional
T2 sequence (P9WHJ3 whole entry): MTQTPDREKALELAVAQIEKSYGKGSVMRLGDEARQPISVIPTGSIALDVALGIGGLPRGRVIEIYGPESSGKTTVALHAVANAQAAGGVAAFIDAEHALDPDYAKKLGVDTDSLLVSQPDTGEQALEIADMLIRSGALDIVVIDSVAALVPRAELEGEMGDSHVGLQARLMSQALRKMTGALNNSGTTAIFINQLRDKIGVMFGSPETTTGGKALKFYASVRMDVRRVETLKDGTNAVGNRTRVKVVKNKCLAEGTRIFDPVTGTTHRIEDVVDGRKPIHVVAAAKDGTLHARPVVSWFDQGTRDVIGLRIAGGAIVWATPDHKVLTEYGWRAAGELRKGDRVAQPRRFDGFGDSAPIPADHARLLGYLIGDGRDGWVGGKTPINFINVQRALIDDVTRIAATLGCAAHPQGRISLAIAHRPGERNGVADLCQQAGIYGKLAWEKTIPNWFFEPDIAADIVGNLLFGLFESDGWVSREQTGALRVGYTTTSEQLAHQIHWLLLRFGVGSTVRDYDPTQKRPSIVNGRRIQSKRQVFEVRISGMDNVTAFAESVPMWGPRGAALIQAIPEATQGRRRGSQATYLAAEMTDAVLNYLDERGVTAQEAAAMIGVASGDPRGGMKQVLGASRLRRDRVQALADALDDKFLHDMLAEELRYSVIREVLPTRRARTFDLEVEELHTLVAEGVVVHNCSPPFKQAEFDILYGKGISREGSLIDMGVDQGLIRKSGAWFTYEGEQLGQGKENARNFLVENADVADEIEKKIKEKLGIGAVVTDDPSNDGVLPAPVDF

[5] = target: ALK tyrosine kinase receptor (Homo sapiens, UniProt Q9UM73); format: functional;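 further: ALK tested as one member of a kinase panel screen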
[6] = target: Hepatocyte growth factor receptor (Homo sapiens, UniProt P08581); format: functional;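 further: kinase panel profiling across the kinome, with MET as the panel member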
[7] = target: Tyrosine-protein kinase JAK3 (Homo sapiens, UniProt P52333); format: functional
[8] = target: Fibroblast growth factor receptor 1 (Homo sapiens, UniProt P11362); format: functional
[9] = target: Vascular endothelial growth factor receptor 2 (Homo sapiens, UniProt P35968); format: functional
[10] = target: Tyrosine-protein kinase BTK (Homo sapiens, UniProt Q06187); format: functional
[11] = target: 5'-AMP-activated protein kinase catalytic subunit alpha-1 (Homo sapiens, UniProt Q13131); format: functional
[12] = target: Mitogen-activated protein kinase kinase kinase kinase 4 (Homo sapiens, UniProt O95819); format: functional
[13] = target: T3, cAMP-dependent protein kinase catalytic subunit PRKX (Homo sapiens, UniProt P51817); format: functional
T3 sequence (P51817 whole entry): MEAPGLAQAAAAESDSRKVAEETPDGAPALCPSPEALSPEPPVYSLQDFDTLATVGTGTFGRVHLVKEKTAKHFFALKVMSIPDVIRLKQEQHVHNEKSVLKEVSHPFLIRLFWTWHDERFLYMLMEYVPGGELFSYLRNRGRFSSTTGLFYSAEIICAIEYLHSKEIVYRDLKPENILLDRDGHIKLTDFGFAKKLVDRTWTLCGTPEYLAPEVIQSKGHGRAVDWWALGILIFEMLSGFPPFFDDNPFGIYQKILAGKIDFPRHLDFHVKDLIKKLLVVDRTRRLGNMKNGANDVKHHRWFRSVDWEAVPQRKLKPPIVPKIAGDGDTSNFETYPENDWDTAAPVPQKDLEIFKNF

Chain of Vascular endothelial growth factor receptor 2 (P35968 whole entry): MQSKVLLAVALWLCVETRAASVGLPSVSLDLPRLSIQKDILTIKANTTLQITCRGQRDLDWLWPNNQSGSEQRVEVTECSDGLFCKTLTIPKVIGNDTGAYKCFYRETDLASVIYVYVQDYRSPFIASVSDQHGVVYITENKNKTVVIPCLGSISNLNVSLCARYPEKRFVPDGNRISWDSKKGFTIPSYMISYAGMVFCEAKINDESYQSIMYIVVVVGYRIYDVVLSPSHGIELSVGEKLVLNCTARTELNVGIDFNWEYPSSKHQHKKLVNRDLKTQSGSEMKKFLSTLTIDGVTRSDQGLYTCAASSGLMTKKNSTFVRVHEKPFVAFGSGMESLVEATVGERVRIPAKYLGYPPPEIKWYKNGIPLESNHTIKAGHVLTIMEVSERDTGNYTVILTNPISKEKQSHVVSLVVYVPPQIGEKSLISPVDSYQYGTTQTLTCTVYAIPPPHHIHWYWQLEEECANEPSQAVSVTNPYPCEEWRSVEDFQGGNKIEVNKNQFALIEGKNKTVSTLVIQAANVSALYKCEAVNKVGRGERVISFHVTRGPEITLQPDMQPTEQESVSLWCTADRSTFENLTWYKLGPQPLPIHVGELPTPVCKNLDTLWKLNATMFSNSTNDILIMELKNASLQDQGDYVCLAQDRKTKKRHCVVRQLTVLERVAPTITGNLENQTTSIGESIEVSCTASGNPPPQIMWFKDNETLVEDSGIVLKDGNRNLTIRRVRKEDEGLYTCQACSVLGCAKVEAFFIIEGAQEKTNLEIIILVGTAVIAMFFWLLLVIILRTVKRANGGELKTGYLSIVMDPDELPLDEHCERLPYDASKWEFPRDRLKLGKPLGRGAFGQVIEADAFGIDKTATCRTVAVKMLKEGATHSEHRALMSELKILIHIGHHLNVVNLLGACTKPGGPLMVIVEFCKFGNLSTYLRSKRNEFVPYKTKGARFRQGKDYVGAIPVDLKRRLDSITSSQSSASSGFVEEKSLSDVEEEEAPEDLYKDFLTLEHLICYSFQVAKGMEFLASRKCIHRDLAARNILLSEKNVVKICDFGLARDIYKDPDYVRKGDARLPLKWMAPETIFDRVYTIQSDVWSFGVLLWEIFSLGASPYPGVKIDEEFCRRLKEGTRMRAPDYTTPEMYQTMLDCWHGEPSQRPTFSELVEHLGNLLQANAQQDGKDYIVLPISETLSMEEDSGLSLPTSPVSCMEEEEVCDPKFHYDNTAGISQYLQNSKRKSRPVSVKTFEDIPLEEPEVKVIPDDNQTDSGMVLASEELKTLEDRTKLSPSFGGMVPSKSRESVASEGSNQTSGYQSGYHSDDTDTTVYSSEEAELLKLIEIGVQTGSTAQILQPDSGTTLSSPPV
Chain of Fibroblast growth factor receptor 1 (P11362 whole entry): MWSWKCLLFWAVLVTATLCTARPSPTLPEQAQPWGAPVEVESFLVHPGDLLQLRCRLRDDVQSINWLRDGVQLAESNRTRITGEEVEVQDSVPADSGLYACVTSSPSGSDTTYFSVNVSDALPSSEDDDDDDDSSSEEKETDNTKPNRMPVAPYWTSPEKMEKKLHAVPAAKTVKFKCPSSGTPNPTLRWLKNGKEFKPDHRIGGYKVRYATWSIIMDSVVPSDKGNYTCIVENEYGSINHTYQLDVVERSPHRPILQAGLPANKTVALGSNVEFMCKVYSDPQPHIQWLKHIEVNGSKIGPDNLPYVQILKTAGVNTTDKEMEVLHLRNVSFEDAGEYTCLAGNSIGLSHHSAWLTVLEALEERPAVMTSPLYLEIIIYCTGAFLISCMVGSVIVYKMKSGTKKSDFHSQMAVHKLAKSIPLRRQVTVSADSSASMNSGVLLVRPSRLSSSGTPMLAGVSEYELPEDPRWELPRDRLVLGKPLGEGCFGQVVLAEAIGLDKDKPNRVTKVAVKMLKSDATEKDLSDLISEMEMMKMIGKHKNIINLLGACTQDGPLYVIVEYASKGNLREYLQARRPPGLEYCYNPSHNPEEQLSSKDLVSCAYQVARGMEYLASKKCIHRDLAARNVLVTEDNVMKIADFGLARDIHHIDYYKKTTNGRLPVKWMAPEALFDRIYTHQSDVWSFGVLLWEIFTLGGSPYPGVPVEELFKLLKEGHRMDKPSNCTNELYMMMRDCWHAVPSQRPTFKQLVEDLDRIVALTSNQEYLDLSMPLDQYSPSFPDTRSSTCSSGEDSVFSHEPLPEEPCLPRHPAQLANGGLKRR
Chain of Tyrosine-protein kinase JAK3 (P52333 whole entry): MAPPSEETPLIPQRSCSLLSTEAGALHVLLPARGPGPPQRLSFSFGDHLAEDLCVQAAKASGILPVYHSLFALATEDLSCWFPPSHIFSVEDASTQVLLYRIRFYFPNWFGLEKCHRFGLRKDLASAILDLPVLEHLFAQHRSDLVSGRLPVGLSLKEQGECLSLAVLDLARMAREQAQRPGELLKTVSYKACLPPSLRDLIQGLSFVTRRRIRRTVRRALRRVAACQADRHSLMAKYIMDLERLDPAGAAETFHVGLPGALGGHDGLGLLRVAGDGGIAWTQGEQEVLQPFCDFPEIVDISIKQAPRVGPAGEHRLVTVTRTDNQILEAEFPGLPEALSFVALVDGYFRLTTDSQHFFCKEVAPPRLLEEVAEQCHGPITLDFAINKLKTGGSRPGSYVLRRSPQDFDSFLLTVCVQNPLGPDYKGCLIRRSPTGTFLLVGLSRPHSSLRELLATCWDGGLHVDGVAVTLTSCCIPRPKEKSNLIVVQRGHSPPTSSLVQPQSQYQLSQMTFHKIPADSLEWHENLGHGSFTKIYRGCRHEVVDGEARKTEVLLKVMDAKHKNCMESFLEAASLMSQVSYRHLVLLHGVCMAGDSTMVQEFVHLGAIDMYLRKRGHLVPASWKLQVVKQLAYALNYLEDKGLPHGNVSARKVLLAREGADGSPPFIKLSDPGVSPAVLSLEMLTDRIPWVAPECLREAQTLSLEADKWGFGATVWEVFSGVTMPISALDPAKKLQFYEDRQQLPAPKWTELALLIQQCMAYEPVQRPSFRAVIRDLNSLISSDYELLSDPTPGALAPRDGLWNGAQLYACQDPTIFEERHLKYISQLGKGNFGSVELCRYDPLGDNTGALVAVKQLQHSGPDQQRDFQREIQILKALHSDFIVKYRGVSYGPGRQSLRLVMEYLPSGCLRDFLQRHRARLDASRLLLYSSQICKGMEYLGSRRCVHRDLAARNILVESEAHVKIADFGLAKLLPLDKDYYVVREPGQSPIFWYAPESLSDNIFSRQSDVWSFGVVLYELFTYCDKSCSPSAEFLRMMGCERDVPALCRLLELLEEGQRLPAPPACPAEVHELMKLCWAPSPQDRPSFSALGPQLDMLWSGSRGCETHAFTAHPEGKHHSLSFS
Chain of 5'-AMP-activated protein kinase catalytic subunit alpha-1 (Q13131 whole entry): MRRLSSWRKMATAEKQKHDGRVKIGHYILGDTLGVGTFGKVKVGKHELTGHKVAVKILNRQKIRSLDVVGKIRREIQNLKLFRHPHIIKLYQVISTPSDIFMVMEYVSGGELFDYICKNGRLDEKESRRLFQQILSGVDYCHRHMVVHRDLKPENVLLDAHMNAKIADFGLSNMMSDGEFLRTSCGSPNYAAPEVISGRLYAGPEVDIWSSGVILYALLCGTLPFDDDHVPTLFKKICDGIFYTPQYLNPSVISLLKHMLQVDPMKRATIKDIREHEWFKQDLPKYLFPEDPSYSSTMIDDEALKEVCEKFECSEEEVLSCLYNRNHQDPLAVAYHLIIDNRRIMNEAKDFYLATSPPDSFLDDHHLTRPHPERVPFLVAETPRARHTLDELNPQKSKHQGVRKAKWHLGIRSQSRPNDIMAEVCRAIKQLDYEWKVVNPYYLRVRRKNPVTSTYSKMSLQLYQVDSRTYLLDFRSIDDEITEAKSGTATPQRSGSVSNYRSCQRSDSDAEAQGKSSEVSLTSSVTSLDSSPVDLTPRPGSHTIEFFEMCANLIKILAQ
Chain of Mitogen-activated protein kinase kinase kinase kinase 4 (O95819 whole entry): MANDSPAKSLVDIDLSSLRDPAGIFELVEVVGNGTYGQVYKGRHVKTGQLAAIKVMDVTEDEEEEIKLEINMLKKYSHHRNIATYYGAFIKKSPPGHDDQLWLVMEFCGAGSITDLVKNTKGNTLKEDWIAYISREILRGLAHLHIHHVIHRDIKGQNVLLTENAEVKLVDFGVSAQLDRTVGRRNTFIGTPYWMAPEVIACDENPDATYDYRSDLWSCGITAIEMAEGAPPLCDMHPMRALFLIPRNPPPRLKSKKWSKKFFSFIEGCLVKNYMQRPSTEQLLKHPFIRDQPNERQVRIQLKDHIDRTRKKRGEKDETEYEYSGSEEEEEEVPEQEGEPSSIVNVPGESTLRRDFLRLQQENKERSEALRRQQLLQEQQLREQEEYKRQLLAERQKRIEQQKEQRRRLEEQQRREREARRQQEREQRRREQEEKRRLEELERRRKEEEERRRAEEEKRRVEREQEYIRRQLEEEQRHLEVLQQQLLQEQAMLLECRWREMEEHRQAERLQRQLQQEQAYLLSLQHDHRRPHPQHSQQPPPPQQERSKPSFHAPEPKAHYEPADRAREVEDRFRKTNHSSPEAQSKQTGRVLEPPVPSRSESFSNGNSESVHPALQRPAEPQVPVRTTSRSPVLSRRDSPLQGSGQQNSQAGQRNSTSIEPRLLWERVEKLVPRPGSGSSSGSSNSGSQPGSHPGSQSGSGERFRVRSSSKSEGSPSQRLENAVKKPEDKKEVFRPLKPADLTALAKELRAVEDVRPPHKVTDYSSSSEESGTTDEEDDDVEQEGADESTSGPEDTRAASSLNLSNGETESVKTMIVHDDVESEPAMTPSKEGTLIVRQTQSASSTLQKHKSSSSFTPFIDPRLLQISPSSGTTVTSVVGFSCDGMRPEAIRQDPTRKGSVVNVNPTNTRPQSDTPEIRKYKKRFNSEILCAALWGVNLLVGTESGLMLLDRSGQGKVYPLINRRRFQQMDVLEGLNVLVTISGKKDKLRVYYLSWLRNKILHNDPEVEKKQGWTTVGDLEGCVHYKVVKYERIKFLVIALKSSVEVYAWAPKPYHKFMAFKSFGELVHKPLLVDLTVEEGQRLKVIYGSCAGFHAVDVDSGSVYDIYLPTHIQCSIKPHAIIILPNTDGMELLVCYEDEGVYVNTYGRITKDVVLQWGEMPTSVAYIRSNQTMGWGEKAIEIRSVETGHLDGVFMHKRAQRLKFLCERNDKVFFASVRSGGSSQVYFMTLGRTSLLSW

Row | Structure (SMILES) | IC50 [1] | EC50 [2] | IC50 [3] | EC50 [4] | Ki [5] | Ki [6] | Ki [7] | Ki [8] | Ki [9] | Ki [10] | Ki [11] | Ki [12] | Ki [13]
1 | Cc1cc(C)c[n+](C2=C([N-]S(=O)(=O)c3cccs3)C(=O)c3ccccc3C2=O)c1 | > 80000 nM (inactive) | 941 nM (active) | 15100 nM (active) |  |  |  |  |  |  |  |  |  | 
2 | CCCCCCCCCCC[N+](C)(C)CC/C=C1/c2ccccc2Sc2ccc(Cl)cc21 |  | 1460 nM (active) |  | 10100 nM (active) |  |  |  |  |  |  |  |  | 
3 | CCn1c(-c2nonc2N)nc2cncc(C(=O)N3CCC(N)C3)c21 (stereo unspecified) |  |  |  |  | > 6310 nM (inactive) | > 2510 nM (inactive) | > 5010 nM (inactive) | > 3980 nM (inactive) | > 2000 nM (inactive) | > 6310 nM (inactive) | > 3160 nM (inactive) | > 3160 nM (inactive) | 20 nM (active)
4 | Cc1[nH]nc2ccc(-c3cncc(OCC(N)Cc4c[nH]c5ccccc45)c3)cc12 (stereo unspecified) |  |  |  |  | > 1260 nM (inactive) | > 3160 nM (inactive) | 316 nM (active) | 3160 nM (active) | 3980 nM (active) | > 1260 nM (inactive) | 158 nM (active) | 50.1 nM (active) | 63.1 nM (active)
5 | COC(=O)c1ccccc1NC1=C/C(=N\S(=O)(=O)c2cccs2)c2ccccc2C1=O | 27200 nM (inactive) |  | 1860 nM (active) | 20.8 nM (inconclusive) |  |  |  |  |  |  |  |  | 
